{
  "source": "patent US10258291B2",
  "about": "“Systems and methods for evaluation of neuropathologies” (The Regents of the University of California, priority 2012, dated 2019)",
  "key": {"[1]": {"test_system": "rhesus macaques (Macaca mulatta)", "assay": "Mismatch negativity (MMN) ERP in macaque EEG, auditory oddball paradigm, under ketamine, saline and 5 h post-ketamine", "format": "in vivo", "description": "(§1) In exemplary implementations of the disclosed technology to assess the efficacy of a treatment for a neuropsychiatric disorder, two adult male rhesus macaques (Macaca mulatta), e.g., 6 and 7 years old, were used. All procedures and animal care were approved by the Salk Institute Animal Care and Use Committee and carried out in accordance with the US National Institutes of Health Guide for the Care and Use of Laboratory Animals.\n(§2) The exemplary stimuli presentation structure included a passive auditory intensity oddball paradigm to present different intensity tones to subjects sitting in an isolated, dimly lit room during the implementations. For example, the auditory stimuli included 100 ms (e.g., 10 ms rise/fall) pure sinusoidal tones (e.g., 1500 Hz) of either a low or a high intensity. Frequent (standard) and infrequent (deviant) stimuli were presented 80% and 20% of the time, respectively, as depicted in FIG. 4. The inter-stimulus interval was 700 ms. For example, twelve hundred standard and three hundred deviant stimuli were presented in each recording session. For example, both high-deviant (e.g., low-standard) and low-deviant (e.g., high-standard) conditions were used, e.g., to allow comparison of the responses to identical stimuli (e.g., low or high) in different contexts (e.g., standard or deviant).\n(§3) For example, EEG scalp recordings were acquired with the Vision Recorder software using a BrainAmpMR system. An exemplary custom-designed 22-channel NHP EEG cap with AgCl electrodes was developed and used for the non-human primate subject data collection (e.g., PCB Ribbon Cable for BrainCap-MR with 5 k resistors; BrainCap MR Box 1.2; sintered ring electrodes with 1.5 mm touchproof safety socket termination and 120 cm heavy-duty leadwire).\n(§4) The exemplary EEG data collection technique for the NHP subjects included the following preparation steps. […]\n(§5) The exemplary EEG data was analyzed using Analyzer 2.0 software. […]"}, "[2]": {"test_system": "rhesus macaques (Macaca mulatta)", "assay": "P300 (P3) ERP in macaque EEG, auditory oddball paradigm, under ketamine, saline and 5 h post-ketamine", "format": "in vivo", "description": "as §1, §2, §3, §4, §5"}, "[3]": {"settings": "ketamine, saline, 5 h post-ketamine"}},
  "note": "Entries after “also recorded” stand apart in the source; their conditions may differ.",
  "data": [
    {"smiles": "CNC1(c2ccccc2Cl)CCCCC1=O", "note": "(stereo not drawn) [ketamine]", "values": [
      {"measurement": "Effect of ketamine on MMN 5 h after infusion", "setting": "[1]; 5 h-post ketamine vs. saline F(1,290)=0.20, p=0.652, ketamine vs. 5 h-post ketamine F(1,403)=7.97, p=0.005", "value": "no longer significant; also recorded: full recovery"},
      {"measurement": "MMN amplitude, ketamine vs. saline", "setting": "[1]; acute subanesthetic ketamine infusion 1 mg/Kg, vs. vehicle saline, F(1,290)=4.47, p=0.035, Cz electrode", "value": "significant reduction"},
      {"measurement": "MMN latency differences across conditions", "setting": "[1]; [3]", "value": "No significant latency differences"},
      {"measurement": "Effect of ketamine on P300 (P3) 5 h after infusion", "setting": "[2]; 5 h-post ketamine vs. saline F(1,301)=0.06, p=0.803, ketamine vs. 5 h-post ketamine F(1,411)=44.34, p=0.000", "value": "no longer significant; also recorded: full recovery"},
      {"measurement": "P300 amplitude, ketamine vs. saline", "setting": "[2]; acute subanesthetic ketamine infusion 1 mg/Kg, vs. vehicle saline, F(1,301)=27.73, p=0.000, Cz electrode", "value": "significant reduction"},
      {"measurement": "P300 latency differences across conditions", "setting": "[2]; [3]", "value": "No significant latency differences"}
    ]}
  ]
}
